This is an account of results in patent US20170254803A1, “METHOD FOR THE DETECTION OF ANTIGEN PRESENTATION” (Deutsches Krebsforschungszentrum Stiftung des öffentlichen …, priority 2014, published 2017).

Ends that are not written are not given here.

Assay [1] has as its system anti-IDH1R132H antibody (H09). Kind of assay: IDH1R132H and IDH1 wildtype peptide coated ELISA. The assay is classed as binding, mouse. Conditions: 10 μg peptide per well; H09 1:1000; OD at 450 nm (FIG. 1C). On the procedure:
ELISA plates (Costar) were coated with IDH1R132H and IDH1wt p118-132, p120-134, p122-136, p124-138, p126-140, p128-142, p130-144, p132-146, p123-142 (10 μg per well in PBS), washed with PBS 0.05% Tween 20, and blocked with 3% FBS in PBS 0.05% Tween 20. As negative controls, MOG p35-55 was used at equal concentrations and peptide diluent PBS 10% DMSO was used at equal volume. As primary antibody monoclonal mouse anti-IDH1R132H (1:1000, H09, Dianova) was used. HRP-conjugated secondary antibody was sheep anti-mouse IgG (1:5000, Amersham). HLA-DRB1*01:01 MHC class II tetramer bound to IDH1R132H p123-142 and HLA-DRB1*01:01 MHC class II tetramer control tetramer bound to CLIP were kindly provided by NIH tetramer core facility and used 1:200 during pre-incubation with H09 for competitive ELISA. Substrate was TMB (ebioscience) and reaction was stopped with 1M H2SO4. OD at 450 nm was measured with an ELISA reader (Thermo Fisher).
In general terms: An ELISA detects its analyte on a solid surface through an enzyme-linked reagent.

Assay [2] has as its target HLA-DR in patients' glioma tissue. Nature of the assay: cell-based or functional assay.

As to “GWVKPIIIGHHAYGDQYRAT (listed as Homo sapiens) [p123-p142]”, the “binding of anti-IDH1R132H antibody to coated peptide” value (“binding of anti-IDH1R132H antibody” for short) in assay [1] is “binds”.

For WVKPIIIGHHAYGDQ [WVKPIIIGHHAYGDQ], the “binding of anti-IDH1R132H antibody” value in assay [1] is given as “binds”.

In turn, “IDH1R132H (endogenous, in human glioma tissue) (from UniProt O75874 2-414)” returned a positivity in the IDH1R132H-MHC class II PLA system (glioma tissue, positivity set to 20 PLA signals per high power field) (of 9 IDH1R132H+ gliomas) in assay [2] of 5.

Regarding KPIIIGHHAYGDQYR [KPIIIGHHAYGDQYR], in assay [1], the “binding of anti-IDH1R132H antibody” value was “binds”.

With SGWVKPIIIGHHAYG [SGWVKPIIIGHHAYG], the “binding of anti-IDH1R132H antibody” value in assay [1] was “binds”.
